Data as given in patent US20200404914A1, “HERBICIDALLY ACTIVE BICYCLIC BENZAMIDES” (Bayer Aktiengesellschaft, priority 2018, published 2020).

Legend:
[1] = tested on: monocotyledonous and dicotyledonous weed plants; assay: Pre-emergence herbicidal action (greenhouse pot test, visual scoring after about 3 weeks); type: in vivo; details: for Herbicidal activity ABUTH (Abutilon theophrasti) / Herbicidal activity AMARE (Amaranthus retroflexus) / Herbicidal activity ECHCG (Echinochloa crus-galli) / Herbicidal activity MATIN (Matricaria inodora) / Herbicidal activity STEME (Stellaria media) / Herbicidal activity VERPE (Veronica persica) / Herbicidal activity VIOTR (Viola tricolor) / Herbicidal activity AVEFA (Avena fatua) / Herbicidal activity CYPES (Cyperus esculentus) / Herbicidal activity PHBPU (Ipomoea purpurea) / Herbicidal activity POLCO (Polygonum convolvulus) / Herbicidal activity SETVI (Setaria viridis): pre-emergence (PE)
Excerpt: In the tables below, the following abbreviations are used: Undesired Plants/Weeds: [table] 1. Pre-Emergence Herbicidal Action and Crop Plant Compatibility Seeds of monocotyledonous and dicotyledonous weed plants and crop plants are placed in plastic or organic planting pots and covered with soil. The compounds of the invention, formulated in the form of wettable powders (WP) or as emulsion concentrates (EC), are then applied onto the surface of the covering soil as aqueous suspension or emulsion with addition of 0.5% additive at a water application rate of […] (converted). After the treatment, the pots are placed in a greenhouse and kept under good growth conditions for the trial plants. After about 3 weeks, the effect of the preparations is scored visually in comparison with untreated controls as percentages. The tables below show the herbicidal activity of numerous compounds according to the invention against important harmful plants. For example, 100% activity=the plants have died, 0% activity=like control plants.

[2] = tested on: monocotyledonous and dicotyledonous weeds; assay: Post-emergence herbicidal action (greenhouse pot test, visual rating after about 3 weeks); type: in vivo; details: for Herbicidal activity ABUTH (Abutilon theophrasti) / Herbicidal activity AMARE (Amaranthus retroflexus) / Herbicidal activity ECHCG (Echinochloa crus-galli) / Herbicidal activity VIOTR (Viola tricolor) / Herbicidal activity MATIN (Matricaria inodora) / Herbicidal activity SETVI (Setaria viridis) / Herbicidal activity STEME (Stellaria media) / Herbicidal activity VERPE (Veronica persica): post-emergence (PO)
Experimental: In the tables below, the following abbreviations are used: Undesired Plants/Weeds: [table] 2. Post-Emergence Herbicidal Action and Crop Plant Compatibility Seeds of monocotyledonous and dicotyledonous weeds and crop plants are placed in sandy loam in plastic or organic planting pots, covered with soil and cultivated in a greenhouse under controlled growth conditions. 2 to 3 weeks after sowing, the test plants are treated at the one-leaf stage. The compounds of the invention, formulated in the form of wettable powders (WP) or as emulsion concentrates (EC), are then sprayed onto the green parts of the plants as aqueous suspension or emulsion with addition of 0.5% additive at a water application rate of […] (converted). After the test plants had been kept in the greenhouse under optimum growth conditions for about 3 weeks, the activity of the preparations is rated visually in comparison to untreated controls. The tables below show the herbicidal activity of numerous compounds according to the invention against important harmful plants. For example, 100% activity=the plants have died, 0% activity=like control plants.

[3] = application rate 80, about 3 weeks
[4] = application rate 20, about 3 weeks
[5] = application rate 320, about 3 weeks
[6] = pre-emergence comparative experiment, dosage 320 g/ha
[7] = post-emergence comparative experiment, dosage 80 g/ha

Row | Structure (SMILES) | Herbicidal activity ABUTH (Abutilon theophrasti) [1, 5] | Herbicidal activity AMARE (Amaranthus retroflexus) [1, 5] | Herbicidal activity AVEFA (Avena fatua) [1, 5] | Herbicidal activity CYPES (Cyperus esculentus) [1, 5] | Herbicidal activity ECHCG (Echinochloa crus-galli) [1, 5] | Herbicidal activity MATIN (Matricaria inodora) [1, 5] | Herbicidal activity PHBPU (Ipomoea purpurea) [1, 5] | Herbicidal activity POLCO (Polygonum convolvulus) [1, 5] | Herbicidal activity SETVI (Setaria viridis) [1, 5] | Herbicidal activity STEME (Stellaria media) [1, 5] | Herbicidal activity VERPE (Veronica persica) [1, 5] | Herbicidal activity VIOTR (Viola tricolor) [1, 5] | Herbicidal activity ABUTH (Abutilon theophrasti) [2, 3] | Herbicidal activity AMARE (Amaranthus retroflexus) [2, 3] | Herbicidal activity ECHCG (Echinochloa crus-galli) [2, 3] | Herbicidal activity MATIN (Matricaria inodora) [2, 3] | Herbicidal activity SETVI (Setaria viridis) [2, 3] | Herbicidal activity STEME (Stellaria media) [2, 3] | Herbicidal activity VERPE (Veronica persica) [2, 3] | Herbicidal activity VIOTR (Viola tricolor) [2, 3] | further results
1 | Cn1nnnc1NC(=O)c1ccc(C(F)(F)F)c2c1SCCCS2 [2-5] | – | – | – | – | – | – | – | – | – | – | – | – | – | – | – | – | – | – | – | – | Herbicidal activity ABUTH (Abutilon theophrasti) [1, 3]: 100%; Herbicidal activity AMARE (Amaranthus retroflexus) [1, 3]: 100%; Herbicidal activity ECHCG (Echinochloa crus-galli) [1, 3]: 100%; Herbicidal activity MATIN (Matricaria inodora) [1, 3]: 100%; Herbicidal activity STEME (Stellaria media) [1, 3]: 100%; Herbicidal activity VERPE (Veronica persica) [1, 3]: 100%; Herbicidal activity VIOTR (Viola tricolor) [1, 3]: 100%; Herbicidal activity ABUTH (Abutilon theophrasti) [2, 4]: 90%; Herbicidal activity AMARE (Amaranthus retroflexus) [2, 4]: 90%; Herbicidal activity ECHCG (Echinochloa crus-galli) [2, 4]: 90%; Herbicidal activity VIOTR (Viola tricolor) [2, 4]: 80%
2 | Cn1nnnc1NC(=O)c1ccc(C(F)(F)F)c2c1OCCCS2 [2-13, 6-(trifluoromethyl)-3,4-dihydro-2H-1,5-benzoxathiepine-N-(1-methyltetrazol-5-yl)-8-carboxamide] | 100% | 100% | 100% | 90% | 100% | 100% | 100% | 100% | 100% | 100% | 100% | 100% | 100% | 100% | 100% | 80% | 100% | 100% | 100% | 100% | Herbicidal action against ABUTH (Abutilon theophrasti) [1, 6]: 100%; Herbicidal action against ALOMY (Alopecurus myosuroides) [1, 6]: 100%; Herbicidal action against AVEFA (Avena fatua) [1, 6]: 100%; Herbicidal action against MATIN (Matricaria inodora) [1, 6]: 100%; Herbicidal action against SETVI (Setaria viridis) [1, 6]: 100%; herbicidal activity compared to that of compound No. A-117 ([1]; pre-emergence, comparative experiment, numerous harmful plants): superiority of the compound according to the invention was demonstrated clearly; Herbicidal action against ABUTH (Abutilon theophrasti) [2, 7]: 100%; Herbicidal action against ALOMY (Alopecurus myosuroides) [2, 7]: 90%; Herbicidal action against AVEFA (Avena fatua) [2, 7]: 100%; Herbicidal action against PHPBU [2, 7]: 90%; Herbicidal action against POLCO (Polygonum convolvulus) [2, 7]: 80%; herbicidal activity compared to that of compound No. A-117 ([2]; post-emergence, comparative experiment, numerous harmful plants): superiority of the compound according to the invention was demonstrated clearly
3 | Cn1nnnc1NC(=O)c1ccc(C(F)(F)F)c2c1OCCC[S+]2[O-] (stereo not drawn) [2-16] | 100% | 100% | 80% | 100% | 100% | 100% | 80% | 80% | 100% | 100% | 100% | 100% | 100% | 100% | 100% | 100% | 90% | 100% | 90% | 100% | –
4 | Cn1nnnc1NC(=O)c1ccc(C(F)(F)F)c2c1OCCCS2(=O)=O [2-19] | 100% | 100% | 80% | 100% | 100% | 100% | 100% | 90% | 100% | 100% | 100% | 100% | 100% | 100% | 100% | 90% | 90% | 100% | 100% | 100% | –
5 | Cn1nnnc1NC(=O)c1ccc(C(F)(F)F)c2c1[S+]([O-])CCCS2 (stereo not drawn) [2-76] | – | – | – | – | – | – | – | – | – | – | – | – | – | – | – | – | – | – | – | – | Herbicidal activity AMARE (Amaranthus retroflexus) [1, 3]: 90%; Herbicidal activity VIOTR (Viola tricolor) [1, 3]: 90%; Herbicidal activity ABUTH (Abutilon theophrasti) [2, 4]: 80%; Herbicidal activity ECHCG (Echinochloa crus-galli) [2, 4]: 90%
